Results published in US20250114374A1, “BCL-2 INHIBITORS” (Newave Pharmaceutical Inc., priority 2021, published 2025).
pIC50: −log10 of the molar value.

Tested on: RS4; 11 with G101V mutation
Experiment: In vitro anti-proliferation assay (ATPlite luminescence) in BCL-2-dependent ALL cell line RS4;11 with G101V mutation
Format: cell-based
Details: Homo sapiens, RS4-11, 72 h; read-out: RS411-G101V IC50
Method in brief: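 RS4;11 G101V cells at about 1×10^4 per well were exposed to a range of compound concentrations for about 72 h in medium with 10% FBS. Cellular ATP was measured by ATPlite luminescence after lysis, and IC50 was derived from the dose-response.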

pIC50 | Compound
7.33 | CC(C)Oc1ccccc1[C@@H]1CN([C@@H]2CCCOC2)CCN1C1CC2(CCN(c3ccc(C(=O)NS(=O)(=O)c4cc5c(c([N+](=O)[O-])c4)N[C@H](C4CCOCC4)CO5)c(N4c5cc6cc[nH]c6nc5O[C@H]5COCC[C@@H]54)c3)CC2)C1 [Example 174, 4-(2-((R)-2-(2-isopropoxyphenyl)-4-((R)-tetrahydro-2H-pyran-3-yl)piperazin-1-yl)-7-azaspiro[3.5]nonan-7-yl)-N-(((R)-5-nitro-3-(tetrahydro-2H-pyran-4-yl)-3,4-dihydro-2H-benzo[b][1,4]oxazin-7-yl)sulfonyl)-2-((5aS,9aR)-6,7,9,9a-tetrahydro-1H-pyrano[3,4-b]pyrrolo[3′,2′:5,6]pyrido[3,2-e][1,4]oxazin-5(5aH)-yl)benzamide]

Same assay, conditions: cellular anti-proliferative IC50, about 72 hours, medium with 10% FBS, ATPlite; read-out: RS411-G101V IC50

Compound | pIC50
CC(C)Oc1ccccc1[C@H]1CN(C2CCN(C3CCOCC3)CC2)CCN1C1CC2(CCN(c3ccc(C(=O)NS(=O)(=O)c4ccc(NC[C@H]5CC[C@](C)(O)CC5)c([N+](=O)[O-])c4)c(N4c5cc6cc[nH]c6nc5O[C@H]5COCC[C@@H]54)c3)CC2)C1 [Example 162, N-((4-((((1r,4r)-4-hydroxy-4-methylcyclohexyl)methyl)amino)-3-nitrophenyl)sulfonyl)-4-(2-((S)-2-(2-isopropoxyphenyl)-4-(1-(tetrahydro-2H-pyran-4-yl)piperidin-4-yl)piperazin-1-yl)-7-azaspiro[3.5]nonan-7-yl)-2-((5aS,9aR)-6,7,9,9a-tetrahydro-1H-pyrano[3,4-b]pyrrolo[3′,2′:5,6]pyrido[3,2-e][1,4]oxazin-5(5aH)-yl)benzamide] | 7.30
COc1ncc(CN2CCN(C3CC4(CCN(c5ccc(C(=O)NS(=O)(=O)c6ccc(NCC7CCC(C)(O)CC7)c([N+](=O)[O-])c6)c(N6c7cc8cc[nH]c8nc7O[C@H]7COCC[C@@H]76)c5)CC4)C3)[C@@H](c3ccccc3OC(C)C)C2)cc1N1CCOCC1 (stereo partly drawn) [Example 163, N-((4-((((1r,4r)-4-hydroxy-4-methylcyclohexyl)methyl)amino)-3-nitrophenyl)sulfonyl)-4-(2-((S)-2-(2-isopropoxyphenyl)-4-((6-methoxy-5-morpholinopyridin-3-yl)methyl)piperazin-1-yl)-7-azaspiro[3.5]nonan-7-yl)-2-((5aS,9aR)-6,7,9,9a-tetrahydro-1H-pyrano[3,4-b]pyrrolo[3′,2′:5,6]pyrido[3,2-e][1,4]oxazin-5(5aH)-yl)benzamide] | 7.55
Cc1ccccc1[C@@H]1CN(Cc2ccc(F)c(F)c2)CCN1C1CC2(CCN(c3ccc(C(=O)NS(=O)(=O)c4ccc(NCC5CCOCC5)c([N+](=O)[O-])c4)c(N4c5cc6cc[nH]c6nc5O[C@H]5COCC[C@@H]54)c3)CC2)C1 [Example 164, 4-{2-[(2R)-4-[(3,4-difluorophenyl)methyl]-2-(2-methylphenyl)piperazin-1-yl]-7-azaspiro[3.5]nonan-7-yl}-2-[(3R,8S)-2,5-dioxa-9,15,17-triazatetracyclo[8.7.0.0^{3,8}.0^{12,16}]heptadeca-1(10),11,13,16-tetraen-9-yl]-N-{3-nitro-4-[(oxan-4-ylmethyl)amino]benzenesulfonyl}benzamide] | 7.31
CC(C)c1ccccc1[C@@H]1CN(Cc2ccc(F)c(F)c2)CCN1C1CC2(CCN(c3ccc(C(=O)NS(=O)(=O)c4ccc(NCC5CCOCC5)c([N+](=O)[O-])c4)c(N4c5cc6cc[nH]c6nc5O[C@H]5COCC[C@@H]54)c3)CC2)C1 [Example 165, 4-{2-[(2R)-4-[(3,4-difluorophenyl)methyl]-2-(2-isopropylphenyl)piperazin-1-yl]-7-azaspiro[3.5]nonan-7-yl}-2-[(3R,8S)-2,5-dioxa-9,15,17-triazatetracyclo[8.7.0.0^{3,8}.0^{12,16}]heptadeca-1(10),11,13,16-tetraen-9-yl]-N-{3-nitro-4-[(oxan-4-ylmethyl)amino]benzenesulfonyl}benzamide] | 7.96
CC(C)c1ccccc1[C@H]1CN(Cc2ccc(F)c(F)c2)CCN1C1CC2(CCN(c3ccc(C(=O)NS(=O)(=O)c4ccc(NCC5CCOCC5)c([N+](=O)[O-])c4)c(N4c5cc6cc[nH]c6nc5O[C@H]5COCC[C@@H]54)c3)CC2)C1 [Example 166, 4-{2-[(2S)-4-[(3,4-difluorophenyl)methyl]-2-(2-isopropylphenyl)piperazin-1-yl]-7-azaspiro[3.5]nonan-7-yl}-2-[(3R,8S)-2,5-dioxa-9,15,17-triazatetracyclo[8.7.0.0^{3,8}.0^{12,16}]heptadeca-1(10),11,13,16-tetraen-9-yl]-N-{3-nitro-4-[(oxan-4-ylmethyl)amino]benzenesulfonyl}benzamide] | 6.23
Cc1ccccc1[C@@H]1CN(Cc2ccc(F)c(F)c2)CCN1C1CC2(CCN(c3ccc(C(=O)NS(=O)(=O)c4cc5c(c([N+](=O)[O-])c4)N[C@@H](C4CCOCC4)CO5)c(N4c5cc6cc[nH]c6nc5O[C@H]5COCC[C@@H]54)c3)CC2)C1 [Example 167, 4-{2-[(2R)-4-[(3,4-difluorophenyl)methyl]-2-(2-methylphenyl)piperazin-1-yl]-7-azaspiro[3.5]nonan-7-yl}-2-[(3R,8S)-2,5-dioxa-9,15,17-triazatetracyclo[8.7.0.0^{3,8}.0^{12,16}]heptadeca-1(10),11,13,16-tetraen-9-yl]-N-[(3S)-5-nitro-3-(oxan-4-yl)-3,4-dihydro-2H-1,4-benzoxazin-7-ylsulfonyl]benzamide] | 7.12
Cc1ccccc1[C@@H]1CN(Cc2ccc(F)c(F)c2)CCN1C1CC2(CCN(c3ccc(C(=O)NS(=O)(=O)c4cc5c(c([N+](=O)[O-])c4)N[C@H](C4CCOCC4)CO5)c(N4c5cc6cc[nH]c6nc5O[C@H]5COCC[C@@H]54)c3)CC2)C1 [Example 168, 4-{2-[(2R)-4-[(3,4-difluorophenyl)methyl]-2-(2-methylphenyl)piperazin-1-yl]-7-azaspiro[3.5]nonan-7-yl}-2-[(3R,8S)-2,5-dioxa-9,15,17-triazatetracyclo[8.7.0.0^{3,8}.0^{12,16}]heptadeca-1(10),11,13,16-tetraen-9-yl]-N-[(3R)-5-nitro-3-(oxan-4-yl)-3,4-dihydro-2H-1,4-benzoxazin-7-ylsulfonyl]benzamide] | 7.19
COc1cc(CN2CCN(C3CC4(CCN(c5ccc(C(=O)NS(=O)(=O)c6cc7c(c([N+](=O)[O-])c6)N[C@H](C6CCOCC6)CO7)c(N6c7cc8cc[nH]c8nc7O[C@H]7COCC[C@@H]76)c5)CC4)C3)[C@H](c3ccccc3OC(C)C)C2)cnc1N1CCOC[C@@H]1C [Example 169, 2-[(3R,8S)-2,5-dioxa-9,15,17-triazatetracyclo[8.7.0.0^{3,8}.0^{12,16}]heptadeca-1(10),11,13,16-tetraen-9-yl]-4-{2-[(2R)-2-(2-isopropoxyphenyl)-4-({5-methoxy-6-[(3S)-3-methylmorpholin-4-yl]pyridin-3-yl}methyl)piperazin-1-yl]-7-azaspiro[3.5]nonan-7-yl}-N-[(3R)-5-nitro-3-(oxan-4-yl)-3,4-dihydro-2H-1,4-benzoxazin-7-ylsulfonyl]benzamide] | 8.42
Cc1ccccc1[C@@H]1CN([C@H]2CCOc3cc(F)c(F)cc32)CCN1C1CC2(CCN(c3ccc(C(=O)NS(=O)(=O)c4cc5c(c([N+](=O)[O-])c4)N[C@H](C4CCOCC4)CO5)c(N4c5cc6cc[nH]c6nc5O[C@H]5COCC[C@@H]54)c3)CC2)C1 [Example 170, 4-{2-[(2R)-4-[(4S)-6,7-difluoro-3,4-dihydro-2H-1-benzopyran-4-yl]-2-(2-methylphenyl)piperazin-1-yl]-7-azaspiro[3.5]nonan-7-yl}-2-[(3R,8S)-2,5-dioxa-9,15,17-triazatetracyclo[8.7.0.0^{3,8}.0^{12,16}]heptadeca-1(10),11,13,16-tetraen-9-yl]-N-[(3R)-5-nitro-3-(oxan-4-yl)-3,4-dihydro-2H-1,4-benzoxazin-7-ylsulfonyl]benzamide] | 6.69
Cc1ccccc1[C@@H]1CN([C@@H]2CCOc3cc(F)c(F)cc32)CCN1C1CC2(CCN(c3ccc(C(=O)NS(=O)(=O)c4cc5c(c([N+](=O)[O-])c4)N[C@H](C4CCOCC4)CO5)c(N4c5cc6cc[nH]c6nc5O[C@H]5COCC[C@@H]54)c3)CC2)C1 [Example 171, 4-{2-[(2R)-4-[(4R)-6,7-difluoro-3,4-dihydro-2H-1-benzopyran-4-yl]-2-(2-methylphenyl)piperazin-1-yl]-7-azaspiro[3.5]nonan-7-yl}-2-[(3R,8S)-2,5-dioxa-9,15,17-triazatetracyclo[8.7.0.0^{3,8}.0^{12,16}]heptadeca-1(10),11,13,16-tetraen-9-yl]-N-[(3R)-5-nitro-3-(oxan-4-yl)-3,4-dihydro-2H-1,4-benzoxazin-7-ylsulfonyl]benzamide] | 6.66
COc1cc(CN2CCN(C3CC4(CCN(c5ccc(C(=O)NS(=O)(=O)c6cc7c(c([N+](=O)[O-])c6)N[C@H](C6CCOCC6)CO7)c(N6c7cc8cc[nH]c8nc7O[C@H]7COCC[C@@H]76)c5)CC4)C3)[C@H](c3ccccc3C(C)C)C2)cnc1N1CCOC[C@@H]1C [Example 172, 2-[(3R,8S)-2,5-dioxa-9,15,17-triazatetracyclo[8.7.0.0^{3,8}.0^{12,16}]heptadeca-1(10),11,13,16-tetraen-9-yl]-4-{2-[(2R)-2-(2-isopropylphenyl)-4-({5-methoxy-6-[(3S)-3-methylmorpholin-4-yl]pyridin-3-yl}methyl)piperazin-1-yl]-7-azaspiro[3.5]nonan-7-yl}-N-[(3R)-5-nitro-3-(oxan-4-yl)-3,4-dihydro-2H-1,4-benzoxazin-7-ylsulfonyl]benzamide] | 8.85
COc1cc(CN2CCN(C3CC4(CCN(c5ccc(C(=O)NS(=O)(=O)c6cc7c(c([N+](=O)[O-])c6)N[C@H](C6CCOCC6)CO7)c(N6c7cc8cc[nH]c8nc7O[C@H]7COCC[C@@H]76)c5)CC4)C3)[C@H](c3ccccc3C(C)C)C2)cnc1OC [Example 173, 4-{2-[(2R)-4-[(5,6-dimethoxypyridin-3-yl)methyl]-2-(2-isopropylphenyl)piperazin-1-yl]-7-azaspiro[3.5]nonan-7-yl}-2-[(3R,8S)-2,5-dioxa-9,15,17-triazatetracyclo[8.7.0.0^{3,8}.0^{12,16}]heptadeca-1(10),11,13,16-tetraen-9-yl]-N-[(3R)-5-nitro-3-(oxan-4-yl)-3,4-dihydro-2H-1,4-benzoxazin-7-ylsulfonyl]benzamide] | 9.00
